Data from US8883720B2, “Template-fixed beta-hairpin peptidomimetics with CXCR4 antagonizing activity” (Polyphor AG, priority 2008, dated 2014).
Bridge positions count the residues as written; N and C are the ends. Square brackets hold non-standard residues; d marks the D form. Peptide text beside a SMILES is read from it. Abu(3S-NH2) = C[C@H](N)[C@H](N)C(=O)O; Hpla = O=C(O)[C@@H](O)Cc1ccc(O)cc1; Lac = C[C@H](O)C(=O)O

Columns and labels:
[1] = in vitro; assay type: cell-based
Experimental: The cytotoxicity of the depsipeptides to HELA cells (Acc57) and COS-7 cells (CRL-1651) was determined using the MTT reduction assay (T. Mossman, J. Immunol. Meth. 1983, 65, 55-63; M. V. Berridge, A. S. Tan, Arch. Biochem. Biophys. 1993, 303, 474-482). Briefly, the method was as follows: 7000 HELA cells/well and 4500 COS-7 cells/well were seeded and grown in 96-well microtiter plates for 24 h at 37° C. at 5% CO2. Thereafter, time zero (Tz) was determined by MTT reduction (see below). The supernatant of the remaining wells was discarded, and fresh medium and compounds in serial dilutions (12.5, 25 and 50 μM, triplicates) were pipetted into the wells. After incubation of the cells for 48 h at 37° C. at 5% CO2 the supernatant was discarded again and 100 μL MTT reagent (0.5 mg/mL in RPMI1640 and DMEM, respectively)/well was added. Following incubation at 37° C. for 2 h the media were aspirated and the cells were spiked (100 μL isopropanol/well). The absorbance of the solubilized formazan was measured at 595 nm (OD595peptide). For each concentration averages were calculated from triplicates. The percentage of growth was calculated as follows: (OD595peptide-OD595Tz-OD595Empty well)/(OD595Tz-OD595Empty well)×100%. The GI50 (Growth Inhibition) concentrations were calculated for each depsipeptide by using a trend line function for the concentrations (50, 25, 12.5 and 0 μM), the corresponding percentages and the value 50, (=TREND (C50:C0, %50:%0, 50).

[2] = test system: human red blood cells (hRBC); assay type: cell-based; settings: red cells of human, 1 h
Experimental: 2.5. Hemolysis The depsipeptides were tested for their hemolytic activity against human red blood cells (hRBC). Fresh hRBC were washed three times with phosphate buffered saline (PBS) and centrifuged for 10 min at 2000×g. Compounds (100 μM) were incubated with 20% hRBC (v/v) for 1 h at 37° C. The final erythrocyte concentration was approximately 0.9×10^9 cells/mL. A value of 0% and 100% cell lyses, respectively, was determined by incubation of hRBC in the presence of PBS alone and 0.1% Triton X-100 in H2O, respectively. The samples were centrifuged, the supernatants were 20-fold diluted in PBS buffer and the optical densities (OD) were measured at 540 nm. The 100% lyses value (OD540H2O) gave an OD540 of approximately 1.3-1.8. Percent hemolysis was calculated as follows: (OD540peptide/OD540H2O)×100%.

[3] = Plasma stability, mouse plasma; assay type: in vitro ADME; settings: 37° C., sampled up to 240 min
Experimental: (§1) The stability of the depsipeptides in human and mouse plasma was determined by applying the following method: 315 μL/deep well of freshly thawed human plasma (Basler Blutspende-dienst) and mouse plasma (Harlan Sera-Lab, UK), respectively, were spiked with 35 μL/well of compound in PBS (100 μM, triplicate) and incubated at 37° C. At t=0, 15, 30, 60, 120 and 240 min aliquots of 50 μL were transferred to filtration plate wells containing 150 μL/well of acetonitrile. Following shaking for 2 min the occurred suspensions were filtrated by vacuum and finally, 100 μL of each filtrate were transferred to a propylene microtiter plate, and analyzed by LC/MS as follows: Column: Waters, XBridge C18, mobile phases: (A) water+0.1% formic acid and (B) acetonitrile/water, 95/5 (v/v)+0.1% formic acid, gradient: 5%-100% (B) in 2 minutes, electrospray ionization, MRM detection (triple quadrupole). The peak areas were determined and triplicate values are averaged. The stability is expressed in percent of the initial value at t=0. (tx/t0×100). By using the TREND function of EXCEL (Microsoft Office 2003) T1/2 were determined.

[4] = Plasma stability, human plasma; assay type: in vitro ADME; settings: 37° C., sampled up to 240 min
Experimental: as §1

[5] = biological target: T1, human CXCR4 (Homo sapiens, UniProt P61073); test: Ca2+-assay: CXCR4-antagonizing activity (SDF-1 induced calcium mobilization); assay type: cell-based; settings: mouse pre-B cell line 300-19 stably transfected with human CXCR4, read-out: IC50% [nM] ± SD, CXCR4 receptor
T1 construct: expressed in transfected cells; host or cells: mouse pre-B cell line 300-19
T1 sequence (P61073 whole entry): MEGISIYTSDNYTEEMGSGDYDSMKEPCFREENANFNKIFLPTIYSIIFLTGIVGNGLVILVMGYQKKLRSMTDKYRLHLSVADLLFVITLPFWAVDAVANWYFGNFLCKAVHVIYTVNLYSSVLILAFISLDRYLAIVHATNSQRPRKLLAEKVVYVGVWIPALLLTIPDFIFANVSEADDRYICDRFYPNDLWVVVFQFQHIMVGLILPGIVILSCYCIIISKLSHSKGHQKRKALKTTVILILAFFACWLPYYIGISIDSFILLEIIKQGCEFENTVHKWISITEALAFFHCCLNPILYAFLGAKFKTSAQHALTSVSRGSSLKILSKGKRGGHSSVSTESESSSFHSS
Excerpt: 2.3. Ca^2+-Assay: CXCR4-Antagonizing Activity of the Depsipeptides
Increases in intracellular calcium were monitored using a Flexstation 384 (Molecular Devices, Sunnyvale, Calif.) to assay the depsipeptides for CXCR4 antagonism in a mouse pre-B cell line 300-19 stably transfected with human CXCR4 (E. Oberlin, A. Amara, F. Bachelerie, C. Bessia, J.-L. Virelizier, F. Arenzana-Seisdedos, O. Schwartz, J.-M. Heard, I. Clark-Lewis, D. F. Legler, M. Loetscher, M. Baggiolini, B. Moser, Nature 1996, 382, 833-835; M. Loetscher, T. Geiser, T. O'Reilly, R. Zwalen, M. Baggiolini, B. Moser, J. Biol. Chem. 1994, 269, 232-237; M. D'Apuuo, A. Rolink, M. Loetscher, J. A. Hoxie, I. Clark-Lewis, F. Melchors, M. Baggiolini, B. Moser, Eur. J. Immunol. 1997, 27, 1788-1793). The cells were batch loaded with the Calcium 4 Assay kit (Molecular Devices) in assay buffer (Hanks Balanced salt solution [HBSS], 20 mM HEPES, pH 7.4, 0.1% BSA) for 1 h at room temperature and labeled cells were dispensed into black well assays plates (Costar No. 3603). Calcium mobilization induced by stromal-derived factor-1 (SDF-1) was measured in the Flexstation 384 (excitation: 485 nm; emission: 525 nm) for 90 seconds. Antagonist activity of depsipeptides was determined by spiking the cells with compounds prior to SDF-1 addition. Dose response curves (compound concentration versus % maximum response for SDF-1) were determined for each antagonist and IC50 values were calculated by fitting the data to a four parameter logistic equation using SoftmaxPro 4.8 (Molecular Devices).

GI50 at 48 h ([1]; African green monkey) [µM]	GI50 at 48 h ([1]; human) [µM]	half-life at 10 μM ([3]; read-out: Plasmastability mouse pl. T1/2) [h]	half-life at 10 μM ([4]; read-out: Plasmastability human pl. T1/2) [h]	IC50 [5] [nM]	Plasmastability mouse pl. T1/2 [3] [h]	Plasmastability human pl. T1/2 [4] [h]	SMILES	Hemolysis at 100 μM [2] [%]
12	2	1.22	1.32	0.8 ± 0.5			C[C@@H]1NC(=O)[C@H](Cc2c[nH]cn2)NC(=O)[C@H](Cc2ccc(O)cc2)NC(=O)[C@@H]2CCCN2C(=O)[C@H]2CCCN2C(=O)[C@H](CCCCN)NC(=O)[C@H](CCC(N)=O)NC(=O)[C@H](Cc2ccc(O)cc2)NC(=O)[C@@H]2CSSC[C@H](NC1=O)C(=O)N[C@@H](CO)C(=O)O[C@@H](C)C(=O)N1CCC[C@@H]1C(=O)N[C@@H]([C@H](C)N)C(=O)N[C@@H](CCCNC(=N)N)C(=O)N[C@@H](Cc1ccc(O)cc1)C(=O)N2 [Example 1] (cyclo(YHACS[Lac][dP][Abu(3S-NH2)]RYCYQK[dP]P); disulfide 4-11)	0.2
> 50	> 50			4.4 ± 1.6	> 4	> 4	C[C@@H]1NC(=O)[C@H](Cc2c[nH]cn2)NC(=O)[C@H](Cc2ccc(O)cc2)NC(=O)[C@@H]2CCCN2C(=O)[C@H]2CCCN2C(=O)[C@H](CCCCN)NC(=O)[C@H](Cc2ccc(O)cc2)OC(=O)[C@H](Cc2ccc(O)cc2)NC(=O)[C@@H]2CSSC[C@H](NC1=O)C(=O)N[C@@H](CO)C(=O)N[C@@H](C)C(=O)N1CCC[C@@H]1C(=O)N[C@@H]([C@H](C)N)C(=O)N[C@@H](CCCNC(=N)N)C(=O)N[C@@H](Cc1ccc(O)cc1)C(=O)N2 [Example 4] (cyclo(YHACSA[dP][Abu(3S-NH2)]RYCY[Hpla]K[dP]P); disulfide 4-11)	1.0
